Here are results for nine compounds from article PMC6371206 (ACS Pharmacology & Translational Science, 2019).

Structures are written as SMILES. Where two headings read alike, the source gives them in different places.

One may read the Emax as the greatest response seen or fitted, relative to the assay's reference. What is called EC50 is the concentration giving half of the maximal effect. Lower therefore signals higher potency in that assay.

In test [1] the target is hD2R (D2SR), Gi1 activation (Homo sapiens, UniProt P14416). Kind of test: cell-based. The test is classed as cell-based. To be noted: for Emax: HEK293, read-out: Gi1 Activation Emax; for Gi1 Activation Emax: 30 min, normalized to quinpirole Emax; for Gi1 Activation Emax / EC50: hD2R in HEK293 cells; for EC50: Gi1 Activation EC50, 30 min.
The test system of the next test is hD2R. Kind of test: Pairwise bias factor calculation. The test is classed as cell-based, human. The settings on record: for Go-protein bias over β-arrestin: bias expressed as fold; for Bias factor GoA−βarrestin / Bias factor Gi1–GoA activation / Bias factor cAMP−βarrestin: logarithmic scale, relative to quinpirole, 30 min data; for Bias factor Gi1–GoA activation: negative = GoA bias.

Test [2] has as its target hD2R (D2SR), β-arrestin 2 recruitment (Homo sapiens, UniProt P14416). Kind of test: cell-based. The test is classed as cell-based. The settings on record: for Emax: HEK293, read-out: βArrestin2 Recruitment Emax. (Arrestin recruitment assays detect the binding of arrestin to an activated receptor.)
Test [3] deals with hD2R (D2SR), cAMP inhibition (Homo sapiens, UniProt P14416). Kind of test: cell-based. The settings on record: for Emax: HEK293, read-out: cAMP Inhibition Emax; for EC50: cAMP Inhibition EC50, 30 min, hD2R in HEK293 cells.
Test [4] has as its target hD2R (D2SR), GoA activation (Homo sapiens, UniProt P14416). Kind of test: cell-based. To be noted: for EC50: GoA Activation EC50, 30 min, hD2R in HEK293 cells; for Emax: HEK293, read-out: GoA Activation Emax.
Test [5] concerns D2R-expressing dopaminergic neurons in VTA and SNc (GIRK activity). The test is classed as cell-based, mouse.

Sequence of hD2R (D2SR), β-arrestin 2 recruitment (P14416 1-414 isoform P14416-2): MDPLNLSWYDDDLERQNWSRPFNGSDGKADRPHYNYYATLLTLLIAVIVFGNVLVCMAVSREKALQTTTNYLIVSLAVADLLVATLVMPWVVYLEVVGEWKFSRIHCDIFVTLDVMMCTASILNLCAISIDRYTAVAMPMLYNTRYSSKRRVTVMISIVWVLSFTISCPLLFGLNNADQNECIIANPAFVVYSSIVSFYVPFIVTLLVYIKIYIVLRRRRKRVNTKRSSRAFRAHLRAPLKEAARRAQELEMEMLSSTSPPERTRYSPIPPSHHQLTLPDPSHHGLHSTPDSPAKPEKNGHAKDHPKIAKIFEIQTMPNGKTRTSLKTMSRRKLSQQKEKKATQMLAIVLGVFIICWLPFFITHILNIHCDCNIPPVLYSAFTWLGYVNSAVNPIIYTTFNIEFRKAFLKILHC
Sequence of hD2R (D2SR), β-arrestin 2 recruitment (P32121 whole entry partner): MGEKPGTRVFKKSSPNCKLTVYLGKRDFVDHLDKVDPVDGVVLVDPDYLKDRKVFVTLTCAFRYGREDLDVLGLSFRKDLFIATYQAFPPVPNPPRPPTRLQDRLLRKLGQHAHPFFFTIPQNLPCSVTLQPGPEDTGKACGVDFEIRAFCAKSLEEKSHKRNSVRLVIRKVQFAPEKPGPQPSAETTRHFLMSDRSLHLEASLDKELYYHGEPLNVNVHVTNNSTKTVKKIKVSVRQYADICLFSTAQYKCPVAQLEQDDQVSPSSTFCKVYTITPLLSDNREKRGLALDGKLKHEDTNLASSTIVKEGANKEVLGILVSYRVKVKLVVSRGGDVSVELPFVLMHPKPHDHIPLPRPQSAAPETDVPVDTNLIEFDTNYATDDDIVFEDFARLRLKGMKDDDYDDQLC
Sequence of hD2R (D2SR), GoA activation (P14416 1-414 isoform P14416-2): as the sequence (P14416 1-414 isoform P14416-2) above
Sequence of hD2R (D2SR), GoA activation (P09471 2-354 partner limits assumed): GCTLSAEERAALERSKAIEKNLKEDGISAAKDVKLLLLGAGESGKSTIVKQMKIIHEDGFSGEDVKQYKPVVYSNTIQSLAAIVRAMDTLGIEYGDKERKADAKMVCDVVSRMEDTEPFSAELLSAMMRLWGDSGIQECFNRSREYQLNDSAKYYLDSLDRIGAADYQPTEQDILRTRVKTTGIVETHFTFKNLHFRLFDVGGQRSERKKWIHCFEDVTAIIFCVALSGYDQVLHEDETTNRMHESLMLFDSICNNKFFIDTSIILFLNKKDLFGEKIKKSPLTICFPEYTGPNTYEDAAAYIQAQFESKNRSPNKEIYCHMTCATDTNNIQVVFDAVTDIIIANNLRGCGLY
Sequence of hD2R (D2SR), GoA activation (P62873 2-340 partner limits assumed): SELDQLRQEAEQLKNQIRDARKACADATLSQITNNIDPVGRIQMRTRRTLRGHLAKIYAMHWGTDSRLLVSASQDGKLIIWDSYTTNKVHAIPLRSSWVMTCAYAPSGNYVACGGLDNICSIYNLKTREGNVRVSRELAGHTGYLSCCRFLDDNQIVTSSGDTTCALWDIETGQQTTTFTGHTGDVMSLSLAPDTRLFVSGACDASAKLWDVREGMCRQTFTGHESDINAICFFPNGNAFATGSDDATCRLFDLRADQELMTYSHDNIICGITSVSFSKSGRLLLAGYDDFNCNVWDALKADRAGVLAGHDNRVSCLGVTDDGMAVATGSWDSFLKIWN
Sequence of hD2R (D2SR), GoA activation (P59768 2-68 partner limits assumed): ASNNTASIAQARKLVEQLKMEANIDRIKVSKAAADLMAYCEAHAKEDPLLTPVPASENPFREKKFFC
Sequence of hD2R (D2SR), Gi1 activation (P14416 1-414 isoform P14416-2): as the sequence (P14416 1-414 isoform P14416-2) above
Sequence of hD2R (D2SR), Gi1 activation (P63096 2-354 partner limits assumed): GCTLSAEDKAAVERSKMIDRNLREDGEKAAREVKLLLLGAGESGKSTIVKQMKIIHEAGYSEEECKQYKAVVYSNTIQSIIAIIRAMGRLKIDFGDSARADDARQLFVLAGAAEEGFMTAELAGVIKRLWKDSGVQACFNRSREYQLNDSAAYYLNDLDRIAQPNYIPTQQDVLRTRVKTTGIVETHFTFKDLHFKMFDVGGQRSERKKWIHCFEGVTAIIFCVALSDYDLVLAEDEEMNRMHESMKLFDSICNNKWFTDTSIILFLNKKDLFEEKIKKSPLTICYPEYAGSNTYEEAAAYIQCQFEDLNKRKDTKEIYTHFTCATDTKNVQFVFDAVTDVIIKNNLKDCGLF
Sequence of hD2R (D2SR), Gi1 activation (P62873 2-340 partner limits assumed): as the sequence (P62873 2-340 partner limits assumed) above
Sequence of hD2R (D2SR), Gi1 activation (P59768 2-68 partner limits assumed): as the sequence (P59768 2-68 partner limits assumed) above
Sequence of hD2R (D2SR), cAMP inhibition (P14416 1-414 isoform P14416-2): as the sequence (P14416 1-414 isoform P14416-2) above

Consider `CN(CCCCNC(=O)c1cc2ccccc2[nH]1)[C@@H]1Cc2cccc3[nH]c(=O)n(c23)C1` [Compound 1], for which the Emax in test [1] amounted to 51 ± 4.4%. For the same compound, in the test with hD2R, the “Go-protein bias over β-arrestin” value is about 30 fold, the “Bias factor GoA−βarrestin” value is 1.51 and the “Bias factor Gi1–GoA activation” value is given as “–0.98”.

`CC1Cc2ccccc2N1C(=O)c1nc2ccccc2s1` (stereo not shown) [Compound 2, reference compound]: in test [1], the “Gi1 Activation Emax” value is “low efficacy”, the EC50 was 39.7 ± 39.7 nM and the Emax is 8.1 ± 8.2%. The “βArrestin2 Recruitment Emax” value in test [2] (30 min, hD2R in HEK293 cells, normalized to quinpirole Emax) is given as “low efficacy”. In test [3], the maximal response (Emax) was found to be 58.5 ± 30.2% and it took 22.9 ± 19 nM to reach a half-maximal effect (EC50). In test [4], the EC50 turned out to be 61.1 ± 48.8 nM and the Emax turned out to be 31.9 ± 7%.

As for `CN(CCCCNC(=O)c1ccc2scnc2c1)[C@@H]1Cc2cccc3[nH]c(=O)n(c23)C1` [Compound 8], in test [1], the “Gi1 Activation Emax” value is reported as “fully efficacious”, the half-maximal effective concentration (EC50) stood at 144 ± 52.6 nM and the Emax amounted to 108 ± 7.3%. Further, in test [2], the EC50 stood at 208 ± 173 nM and the Emax was 76.4 ± 20.1%. Also, in test [3], the maximal effect (Emax) was 95.4 ± 4.7% and the EC50 is 5.2 ± 1.8 nM. Further, in test [4], the EC50 came to 7.3 ± 3.6 nM and the Emax turned out to be 92.1 ± 7.2%. Also, in the test on hD2R, the “Bias factor GoA−βarrestin” value is 1.21, the “Bias factor cAMP−βarrestin” value is reported as 1.05 and the “Bias factor Gi1–GoA activation” value is recorded as “–0.44”.

In the case of `CN(CCCCNC(=O)c1nc2ccccc2s1)[C@@H]1Cc2cccc3[nH]c(=O)n(c23)C1` [Compound 9], in test [1], a half-maximal effect (EC50) was put at 301 ± 147 nM and the Emax came out at 85.1 ± 8.6%. Further, in test [2], the EC50 is 794 ± 711 nM and the Emax worked out at 64.2 ± 25.6%. Moreover, in test [3], the Emax amounted to 84 ± 6.2% and the EC50 was 79.1 ± 31.7 nM. Also, in test [4], the half-maximal effective concentration (EC50) was found to be 117 ± 59 nM and the Emax was determined as 75.5 ± 7.8%. In addition, in the test on hD2R, the “Bias factor GoA−βarrestin” value is 0.55, the “Bias factor cAMP−βarrestin” value was 0.56 and the “Bias factor Gi1–GoA activation” value is on record as 0.43.

Consider `CN(C[C@@H]1C[C@H]1CCNC(=O)c1cc2ccccc2[nH]1)[C@@H]1Cc2cccc3[nH]c(=O)n(c23)C1` [Compound 19], for which, in test [1], the EC50 amounted to 129 ± 56.3 nM and the Emax amounted to 57.6 ± 4.9%. In test [2], the EC50 was 80.5 ± 35.7 nM and the maximum response (Emax) amounted to 30.5 ± 2.6%. Also, in test [3], the Emax was 60.5 ± 1.5% and the EC50 turned out to be 6 ± 1.1 nM. Further, in test [4], the EC50 is 1 ± 0.5 nM and the Emax was determined as 74 ± 5.4%. In addition, in the test with hD2R, the “Go-protein bias over β-arrestin” value was over 1000 fold, the “Bias factor GoA−βarrestin” value is given as 3.44 and the “Bias factor cAMP−βarrestin” value is reported as 1.93.

Take `CN(CC[C@@H]1C[C@H]1CNC(=O)c1cc2ccccc2[nH]1)[C@@H]1Cc2cccc3[nH]c(=O)n(c23)C1` [Compound 20]: in test [1], the EC50 was determined as 184 ± 63.6 nM and the Emax amounted to 72.4 ± 4.6%. In test [2], a half-maximal response (EC50) required 208 ± 85.8 nM and the Emax was 26 ± 2.1%. Besides, in test [3], the Emax amounted to 59.8 ± 1.5% and the response was half-maximal at 81.1 ± 13.1 nM (EC50). Besides, in test [4], the half-maximal effective concentration (EC50) came to 103 ± 28.2 nM and the Emax is 80.3 ± 3.8%. Further, in the test on hD2R, the “Go-protein bias over β-arrestin” value is given as over 1000 fold, the “Bias factor GoA−βarrestin” value is recorded as 2.50, the “Bias factor cAMP−βarrestin” value is listed as 1.39 and the “Bias factor Gi1–GoA activation” value was 0.24.

As to `CN[C@@H]1Cc2cccc3[nH]c(=O)n(c23)C1` [Sumanirole, (R)-5,6-dihydro-5-(methylamino)-4H-imidazo[4,5,1-ij]quinolin-2(1H)-one, reference compound], the “ligand-induced change of holding current” value in test [5] (whole cell voltage-clamp, −60 mV, 3 and 30 μM) is “produced an increase in the holding current”. Also, in the test on hD2R, the “Bias factor GoA−βarrestin” value is on record as 0.15, the “Bias factor cAMP−βarrestin” value is “–0.10” and the “Bias factor Gi1–GoA activation” value is on record as “–0.54”.

Regarding `NCCc1ccc(O)c(O)c1` [dopamine], the “ligand-induced change of holding current” value in test [5] was “produced an increase in the holding current”.

Regarding `CCN1CCCC1CNC(=O)c1cc(S(N)(=O)=O)ccc1OC` (stereo not shown) [sulpiride], the “effect of D2R antagonist on agonist-induced holding current change” value in test [5] was “inhibited the change in the holding current induced by either sumanirole or 11”.
